Test results from PubChem BioAssay AID1259411 (Chemical Carcinogenesis Research Information System (CCRIS), 2018).
Activity calls are given as the source filed them. How the calls were made is not given here.

Test system: rodent carcinogenicity bioassays, tumor incidence
Test: CCRIS carcinogenicity studies
How it was run: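 Archive of carcinogenicity, mutagenicity, tumor promotion and tumor inhibition results drawn from journals, NCI reports and other sources, expert-reviewed; covers 1985-2011 and is no longer updated.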

For `CC(=O)CN(N=O)C(=O)NCCCl`, the carcinogen call (Species: RAT, Strain/Sex: F344/FEMALE, Route: GAVAGE, Dose: 0, 11.5 MG/ML IN CORN OIL/ETHYL ACETATE (2:1) 2/WK FOR 30 WK (STUDY DURATION: LIFETIME), Tumor Site: Type of Lesion: LIVER: TUMOR) was “active; positive”, the carcinogen call (Species: RAT, Strain/Sex: F344/FEMALE, Route: ORAL, Dose: 0, 46 MG/L IN DRINKING WATER 5 D/WK FOR 30 WK (STUDY DURATION: LIFETIME)) was “inactive; negative” and the carcinogen call (Species: RAT, Strain/Sex: F344/MALE, Route: GAVAGE, Dose: 0, 11.5 MG/ML IN CORN OIL/ETHYL ACETATE (2:1) 2/WK FOR 30 WK (STUDY DURATION: LIFETIME), Tumor Site: Type of Lesion: NERVOUS SYSTEM: TUMOR, SMALL INTESTINE: TUMOR) was “active; positive”. The carcinogen call (Species: RAT, Strain/Sex: F344/MALE, Route: ORAL, Dose: 0, 46 MG/L IN DRINKING WATER 5 D/WK FOR 30 WK (STUDY DURATION: LIFETIME), Tumor Site: Type of Lesion: LUNG: TUMOR, SKIN: TUMOR) was “active; positive”.
`O=C1O[C@@H](CN2CCOCC2)CN1N=Cc1ccc([N+](=O)[O-])o1` was tested, and the carcinogen call (Species: RAT, Route: ORAL, Tumor Site: Type of Lesion: LYMPHATIC SYSTEM: LYMPHOBLASTIC LYMPHOMA, MAMMARY GLAND) was “active; positive”.
`[O-][Br+2]([O-])O` was tested, and the carcinogen call (Species: Hamster, Strain/Sex: Syrian golden/Male (20/group), Route: Oral, Dose: 0, 125, 250, 500, 2000 ppm in drinking water for 89 wk, study duration 89 wk, Dose: 0, 125, 250, 500, 2000 ppm in drinking water for 89 wk, study duration 89 wk, Tumor Site: Type of Lesion: Kidney: Renal adenoma (0/20, 0/20, 1/20, 2/20, 4/20)) was “active; positive”, the carcinogen call (Species: Mouse, Strain/Sex: B6C3F1, BDF1, and CDF1/Male (27/experimental group, 15/control group), Route: Oral, Dose: 0, 750 ppm in drinking water for 88 wk, study duration 88 wk, Tumor Site: Type of Lesion: Kidney: Renal adenoma and carcinoma - B6C3F1: 0/15 (controls), 3/26 (750 ppm), BDF1: 0/15 (controls),1/27 (750 ppm), CDF, Tumor Site: Type of Lesion: Kidney: Renal adenoma and carcinoma - B6C3F1: 0/15 (controls), 3/26 (750 ppm), BDF1: 0/15 (controls),1/27 (750 ppm), CDF) was “active; positive” and the carcinogen call (Species: Mouse, Strain/Sex: B6C3F1/Female (25/ group), Route: Oral, Dose: 0, 500, 1000 ppm in drinking water for 78 wk, followed by tap water for 26 wk, study duration 104 wk, Dose: 0, 500, 1000 ppm in drinking water for 78 wk, followed by tap water for 26 wk, study duration 104 wk) was “inactive; negative”. For the same molecule, the carcinogen call (Species: Mouse, Strain/Sex: Ogg1 wild type/Female (15/15)/(13/15), Route: Oral, Dose: 2 g/l in drinking water for 18 wk followed by 1 g/l in drinking water for 11 wk (Study duration: 52 wk)) was “inactive; negative (kidney, liver, lung, spleen, thymus, stomach, and intestine examined);”, the carcinogen call (Species: Mouse, Strain/Sex: Ogg1 wild type/Male (13/15)/(15/15), Route: Oral, Dose: 2 g/l in drinking water for 18 wk followed by 1 g/l in drinking water for 11 wk (Study duration: 52 wk)) was “inactive; negative (kidney, liver, lung, spleen, thymus, stomach and intestine examined);” and the carcinogen call (Species: RAT, Strain/Sex: F344/FEMALE, Route: ORAL, Dose: 250, 500 PPM IN DRINKING WATER FOR 110 WK, Tumor Site: Type of Lesion: KIDNEY: RENAL CELL ADENOMA, RENAL CELL ADENOCARCINOMA) was “active; positive”. The carcinogen call (Species: RAT, Strain/Sex: F344/MALE, Route: ORAL, Dose: 0, 0.02, 0.1, 0.2, 0.4 G/L IN DRINKING WATER FOR 52, 78, OR 100 WK (STUDY DURATION: 100 WK), Dose: 0, 0.02, 0.1, 0.2, 0.4 G/L IN DRINKING WATER FOR 52, 78, OR 100 WK (STUDY DURATION: 100 WK), Tumor Site: Type of Lesion: TESTICLE: MESOTHELIOMA, KIDNEY: RENAL CELL TUMOR, THYROID: TUMOR, Tumor Site: Type of Lesion: TESTICLE: MESOTHELIOMA, KIDNEY: RENAL CELL TUMOR, THYROID: TUMOR) was “active; positive”, the carcinogen call (Species: RAT, Strain/Sex: F344/MALE, Route: ORAL, Dose: 250, 500 PPM IN DRINKING WATER (HIGH DOSE REDUCED TO 400 PPM AT WK 60), Tumor Site: Type of Lesion: KIDNEY: RENAL CELL ADENOMA, RENAL CELL ADENOCARCINOMA, PERITONEAL CAVITY: MESOTHELIOMA) was “active; positive” and the carcinogen call (Species: Rat, Strain/Sex: F344 (20-41/group), Route: Oral, Dose: 0, 300, 600 mg/kg single intragastric administration, study duration 87 wk, Dose: 0, 300, 600 mg/kg single intragastric administration, study duration 87 wk, Tumor Site: Type of Lesion: Kidney: Renal adenoma and carcinoma (0/20, 0/20, 4/41)) was “active; positive”. For the same molecule, the carcinogen call (Species: Rat, Strain/Sex: F344/Male (14-20/group), Route: Oral, Dose: 500 ppm in drinking water for 13, 26, 39, and 52 wk followed by drinking water for a study duration of 104 wk, Tumor Site: Type of Lesion: Kidney: Adenoma (10/20, 9/19,13/19, 8/14), Adenocarcinoma (2/20, 1/19, 6/19, 3/14). Peritoneum: Mesothelioma (6/20, 8/19) was “active; positive”, the carcinogen call (Species: Rat, Strain/Sex: F344/Male (20-24/group), Route: Oral, Dose: 0, 15, 30, 60, 125, 250, 500 ppm in drinking water for 104 wk, Dose: 0, 15, 30, 60, 125, 250, 500 ppm in drinking water for 104 wk, Tumor Site: Type of Lesion: Kidney: Renal adenoma (0/19, 0/19, 0/20, 1/24, 5/24, 5/20, 6/20) and adenocarcinoma (0/19, 0/19, 0/20, 0/24, 0/24, 0/20) was “active; positive” and the carcinogen call (Species: Rat, Strain/Sex: Fischer 344/Female (50/group), Route: Oral, Dose: 0, 10, 30, 50 mg/kg/day by gavage once daily for 104 wk, Dose: 0, 10, 30, 50 mg/kg/day by gavage once daily for 104 wk) was “inactive; negative”. For the same molecule, the carcinogen call (Species: Rat, Strain/Sex: Fischer 344/Male (50/group), Route: Oral, Dose: 0, 10, 30, 50 mg/kg/day by gavage once daily for 104 wk, Dose: 0, 10, 30, 50 mg/kg/day by gavage once daily for 104 wk) was “inactive; negative”.
For `CCCCCCCCS(=O)C(C)Cc1ccc2c(c1)OCO2` (centres undefined), the carcinogen call (Species: MOUSE, Strain/Sex: B6C3F1/FEMALE, Route: ORAL, Dose: 0, 295, 754 PPM IN DIET, TWA, Dose: 0, 295, 754 PPM IN DIET, TWA) was “inactive; negative”, the carcinogen call (Species: MOUSE, Strain/Sex: B6C3F1/MALE, Route: ORAL, Dose: 0, 350, 700 PPM IN DIET, Dose: 0, 350, 700 PPM IN DIET, Tumor Site: Type of Lesion: LIVER: HEPATOCELLULAR CARCINOMA) was “active; positive” and the carcinogen call (Species: RAT, Strain/Sex: F344/FEMALE, Route: ORAL, Dose: 0, 3000, 6000 PPM IN DIET, Dose: 0, 3000, 6000 PPM IN DIET) was “inactive; negative”. For the same molecule, the carcinogen call (Species: RAT, Strain/Sex: F344/MALE, Route: ORAL, Dose: 0, 1500, 3000 PPM IN DIET, Dose: 0, 1500, 3000 PPM IN DIET) was “inactive; negative”.
For `CCc1cccc2c3c([nH]c12)C(CC)(CC(=O)O)OCC3` (centres undefined), the carcinogen call (Species: MOUSE, Strain/Sex: CD-1/FEMALE, Route: ORAL, Dose: 0;3, 9, 15 MG/KG/D IN DIET FOR 78 WK (STUDY DURATION: 78 WK), Dose: 0;3, 9, 15 MG/KG/D IN DIET FOR 78 WK (STUDY DURATION: 78 WK)) was “inactive; negative”, the carcinogen call (Species: MOUSE, Strain/Sex: CD-1/MALE, Route: ORAL, Dose: 0, 3, 9, 15 MG/KG/D IN DIET FOR 78 WK (STUDY DURATION: 78 WK), Dose: 0, 3, 9, 15 MG/KG/D IN DIET FOR 78 WK (STUDY DURATION: 78 WK)) was “inactive; negative” and the carcinogen call (Species: RAT, Strain/Sex: STRAIN-CD/FEMALE, Route: ORAL, Dose: 0, 3, 9, 15 MG/KG/D IN DIET FOR 104 WK (STUDY DURATION: 104 WK), Dose: 0, 3, 9, 15 MG/KG/D IN DIET FOR 104 WK (STUDY DURATION: 104 WK)) was “inactive; negative”. The carcinogen call (Species: RAT, Strain/Sex: STRAIN-CD/MALE, Route: ORAL, Dose: 0, 3, 9, 15 MG/KG/D IN DIET FOR 104 WK (STUDY DURATION: 104 WK), Dose: 0, 3, 9, 15 MG/KG/D IN DIET FOR 104 WK (STUDY DURATION: 104 WK)) was “inactive; negative”.
`C=CCO` was tested, and the carcinogen call (Species: HAMSTER, Strain/Sex: SYRIAN/MALE, Route: GAVAGE, Dose: 0, 2 MG/WK FOR 60 WK (STUDY DURATION: 92 WK)) was “inactive; negative”, the carcinogen call (Species: RAT, Strain/Sex: F344/FEMALE, Route: ORAL, Dose: 0, 300 MG/L IN DRINKING WATER 5 D/WK FOR 100 WK (STUDY DURATION: 130 WK)) was “inactive; negative” and the carcinogen call (Species: RAT, Strain/Sex: F344/MALE, Route: ORAL, Dose: 0, 300 MG/L IN DRINKING WATER 5 D/WK FOR 100 WK (STUDY DURATION: 130 WK)) was “inactive; negative”.
In the case of `COc1ccc(-c2ccccc2)cc1NNC(=O)OC(C)C`, the carcinogen call (Species: Mouse, Strain/Sex: B6C3F1/Female (50/group), Route: Oral, Dose: 0, 10, 100, 175 ppm in diet for 78 wks, Dose: 0, 10, 100, 175 ppm in diet for 78 wks) was “inactive; negative; purity 92.5%”, the carcinogen call (Species: Rat, Strain/Sex: Sprague-Dawley/Female (60/group), Route: Oral, Dose: 0, 20, 80, 160 ppm in diet for 104 wks, Dose: 0, 20, 80, 160 ppm in diet for 104 wks) was “inactive; negative; purity 92.5%” and the carcinogen call (Species: Rat, Strain/Sex: Sprague-Dawley/Male (60/group), Route: Oral, Dose: 0, 20, 80, 200 ppm in diet for 104 wks, Dose: 0, 20, 80, 200 ppm in diet for 104 wks) was “inactive; negative; purity 92.5%”.
For `FC(Cl)C(F)(F)F` (centres undefined), the carcinogen call (Species: RAT, Strain/Sex: CRL:CD/FEMALE, Route: INHALATION, Dose: 0, 2000, 10,000, 50,000 PPM 6 HR/D 5 D/WK FOR 2 YR (STUDY DURATION: 2 YR), Dose: 0, 2000, 10,000, 50,000 PPM 6 HR/D 5 D/WK FOR 2 YR (STUDY DURATION: 2 YR)) was “inactive; negative” and the carcinogen call (Species: RAT, Strain/Sex: CRL:CD/MALE, Route: INHALATION, Dose: 0, 2000, 10,000, 50,000 PPM 6 HR/D 5 D/WK FOR 2 YR (STUDY DURATION: 2 YR), Dose: 0, 2000, 10,000, 50,000 PPM 6 HR/D 5 D/WK FOR 2 YR (STUDY DURATION: 2 YR)) was “inactive; negative”.
